Measured values as given in BindingDB's records for doi:10.7270/Q2RJ4GVG (The Scripps Research Institute Molecular Screening Center, 2007).

Molecular target: T1, Isoform 2 of Nuclear receptor ROR-alpha (Alpha-2) (Homo sapiens, UniProt P35398)
T1 sequence (P35398 whole entry): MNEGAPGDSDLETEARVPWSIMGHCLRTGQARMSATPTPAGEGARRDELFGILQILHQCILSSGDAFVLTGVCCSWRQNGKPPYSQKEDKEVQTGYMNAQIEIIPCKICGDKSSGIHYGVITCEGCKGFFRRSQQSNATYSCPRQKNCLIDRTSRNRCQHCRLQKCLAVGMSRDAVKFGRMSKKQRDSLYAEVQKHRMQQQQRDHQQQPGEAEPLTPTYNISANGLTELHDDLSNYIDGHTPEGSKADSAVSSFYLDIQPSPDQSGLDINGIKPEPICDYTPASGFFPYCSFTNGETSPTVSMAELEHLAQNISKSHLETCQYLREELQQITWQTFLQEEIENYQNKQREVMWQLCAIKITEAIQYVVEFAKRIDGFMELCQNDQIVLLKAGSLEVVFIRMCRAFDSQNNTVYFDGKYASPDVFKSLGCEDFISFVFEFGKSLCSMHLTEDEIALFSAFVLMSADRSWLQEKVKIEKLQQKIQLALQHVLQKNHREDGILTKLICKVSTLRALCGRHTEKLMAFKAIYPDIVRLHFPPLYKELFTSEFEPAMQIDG
Test: activators of RORA nuclear receptor, dose response, cell-based, CHO-K1, Gal4-RORA LBD, luciferase luminescence (AID 681)
Details: not given

| SMILES | EC50 |
| --- | --- |
| O=C1N(CCCN2C(=O)C3(OCCO3)c3ccccc32)c2ccccc2C12OCCO2 [1'-[3-(2'-ketospiro[1,3-dioxolane-2,3'-indoline]-1'-yl)propyl]spiro[1,3-dioxolane-2,3'-indoline]-2'-one] | > 99000 nM |
| CN1CCN(S(=O)(=O)c2ccc(Br)s2)CC1 [1-(5-bromanylthiophen-2-yl)sulfonyl-4-methyl-piperazine] | > 99000 nM |
| Clc1ccccc1OCCn1cnc2ccccc21 [1-[2-(2-chloranylphenoxy)ethyl]benzimidazole] | > 1220 nM |
| CCCCOC(=O)C(C)Oc1ccc(=O)n(-c2ccccc2)n1 (configuration not stated) [2-(6-keto-1-phenyl-pyridazin-3-yl)oxypropionic acid butyl ester] | > 99000 nM |
| CCOC(=O)c1ccccc1NC(=O)CSc1nnnn1C1CCCCC1 [2-[2-(1-Cyclohexyl-1H-tetrazol-5-ylsulfanyl)-acetylamino]-benzoic acid ethyl ester] | > 99000 nM |
| CCCCOc1ccc(-c2nnn(CC(=O)NCc3ccco3)n2)cc1 [2-[5-(4-Butoxy-phenyl)-tetrazol-2-yl]-N-furan-2-ylmethyl-acetamide] | 5070 nM |
| Nc1c(C(=O)NCCN2CCOCC2)c2nc3ccccc3nc2n1-c1ccc2c(c1)OCO2 [2-amino-1-(1,3-benzodioxol-5-yl)-N-(2-morpholin-4-ylethyl)pyrrolo[3,2-b]quinoxaline-3-carboxamide] | > 1100 nM |
| O=C(c1ccco1)N1CCN(c2ncnc3c(-c4ccccc4)nsc23)CC1 [2-furanyl-[4-(3-phenyl-7-isothiazolo[4,5-d]pyrimidinyl)-1-piperazinyl]methanone] | 4340 nM |
| COCCOC(=O)c1[nH]c2c(c1C)C(=O)CC(c1cc(OC)ccc1OC)C2 (configuration not stated) [2-methoxyethyl 6-(2,5-dimethoxyphenyl)-3-methyl-4-oxo-1,5,6,7-tetrahydroindole-2-carboxylate] | > 3670 nM |
| Cc1cc(N)c(NC2=CC(=O)CC(C)(C)C2)cc1C [3-(2-amino-4,5-dimethyl-anilino)-5,5-dimethyl-cyclohex-2-en-1-one] | > 99000 nM |
| COc1cccc(-c2noc(-c3cccs3)n2)c1 [3-(3-methoxyphenyl)-5-(2-thienyl)-1,2,4-oxadiazole] | > 407 nM |
| O=C1OC(N2CCN(Cc3ccccc3)CC2)c2ccccc21 (configuration not stated) [3-(4-benzylpiperazin-1-yl)-3H-2-benzofuran-1-one] | > 99000 nM |
| Cc1cc(NC(=O)c2oc3ccccc3c2C)ccc1-n1cnnn1 [3-Methyl-benzofuran-2-carboxylic acid (3-methyl-4-tetrazol-1-yl-phenyl)-amide] | 8220 nM |
| Cc1ccccc1Cn1ccc(NC(=O)c2onc(C)c2Cl)n1 [4-chloranyl-3-methyl-N-[1-[(2-methylphenyl)methyl]pyrazol-3-yl]-1,2-oxazole-5-carboxamide] | > 11000 nM |
| Cc1ccc2nc(Nc3ccc4[nH]c(O)nc4c3)c(-n3nc(C)cc3C)nc2c1 [5-[[3-(3,5-dimethyl-1-pyrazolyl)-6-methyl-2-quinoxalinyl]amino]-1,3-dihydrobenzimidazol-2-one] | > 3670 nM |
| COc1cccc(NC(=O)c2nnn(Cc3ccc(Br)cc3F)c2N)c1 [5-amino-1-(4-bromo-2-fluoro-benzyl)-N-(3-methoxyphenyl)triazole-4-carboxamide] | 4570 nM |
| CCN(CCCNC(=O)c1cn(CC)c2ccc(S(=O)(=O)N(C)C)cc2c1=O)c1cccc(C)c1 [6-(dimethylsulfamoyl)-1-ethyl-N-[3-(N-ethyl-3-methyl-anilino)propyl]-4-keto-quinoline-3-carboxamide] | > 99000 nM |
| COC(=O)c1c(NC(=O)CC2SCC(C(=O)OC)NC2=O)sc2c1CCCC2 (configuration not stated) [6-[2-[(3-carbomethoxy-4,5,6,7-tetrahydrobenzothiophen-2-yl)amino]-2-keto-ethyl]-5-keto-thiomorpholine-3-carboxylic acid methyl ester] | > 99000 nM |
| CCN(CC)C(=O)Oc1ccc2c(=O)c(-c3ccccc3)coc2c1 [(4-oxidanylidene-3-phenyl-chromen-7-yl) N,N-diethylcarbamate] | 1240 nM |
| COc1ccc(C(O)P(=O)(O)CCc2ccccc2)cc1 (configuration not stated) [MLS000038577] | > 99000 nM |
| CCn1c(Cn2nnc(-c3ccccc3)n2)nnc1SCC(=O)Nc1ccc(C(C)=O)cc1 [MLS000068275] | > 99000 nM |
| CCOc1ccc2nc(NC(=O)c3cnccn3)sc2c1 [MLS000070707] | > 136 nM |
| CCc1nnc2c3cnn(-c4ccccc4)c3ncn12 [MLS000080478] | > 3670 nM |
| Cc1ccc2c(c1)c1c3n2CCCNC3CCC1 (configuration not stated) [MLS000105423] | > 99000 nM |
| COc1ccc(CCC(=O)Nc2ccc3c(c2)OCCO3)cc1 [MLS000110197] | > 99000 nM |
| CCOc1ccc2nc(N3CCC(C(=O)N4CCN(c5ccccn5)CC4)CC3)sc2c1 [MLS000119552] | > 3670 nM |

Further lines, results first:

| EC50 | SMILES |
| --- | --- |
| 4000 nM | COc1ccc(C(=O)n2c(-c3ccco3)nc3ccccc32)cc1 [MLS000039368] |
| 3630 nM | Oc1coc2ccc(OCc3ccc(F)cc3)cc12 [5-(4-fluorobenzyl)oxycoumaran-3-one] |
| 3480 nM | CC(C)CNS(=O)(=O)c1ccc(C(=O)Nc2ccc3c(c2)OCCO3)cc1 [MLS000032888] |
| 3440 nM | COc1ccccc1-c1nc(-c2ccncc2)no1 [4-[5-(2-Methoxy-phenyl)-[1,2,4]oxadiazol-3-yl]-pyridine] |
| 3430 nM | CCOC(=O)Nc1ccc2c(c1)Nc1ccccc1S2 [(10H-Phenothiazin-2-yl)-carbamic acid ethyl ester] |
| 2640 nM | CCOc1cc(N2CCOCC2)c(OCC)cc1NS(=O)(=O)c1ccc(Cl)s1 [5-chloranyl-N-(2,5-diethoxy-4-morpholin-4-yl-phenyl)thiophene-2-sulfonamide] |
| 2320 nM | Cc1ccc(-c2nc(C#N)c(NCc3ccco3)o2)cc1 [5-(2-furanylmethylamino)-2-(4-methylphenyl)-4-oxazolecarbonitrile] |
| 2030 nM | COc1ccc2nc(NC(=O)CSc3nnc(-c4ccoc4C)n3C)sc2c1 [MLS000073639] |
| 1980 nM | Cn1c(SCc2ccccc2F)nc2cccnc21 [2-(2-Fluoro-benzylsulfanyl)-3-methyl-3H-imidazo[4,5-b]pyridine] |
| 1920 nM | COc1ccc(Nc2oc(-c3ccccc3Cl)nc2C#N)cc1 [2-(2-chlorophenyl)-5-(4-methoxyanilino)-1,3-oxazole-4-carbonitrile] |
| 1850 nM | COc1cc(C)c(C(C)C)cc1S(=O)(=O)n1cnc(C)c1 [1-(2-methoxy-4-methyl-5-propan-2-yl-phenyl)sulfonyl-4-methyl-imidazole] |
| 1830 nM | CCOC(=O)CSc1nc2cc(OCC)ccc2cc1C#N [(3-Cyano-7-ethoxy-quinolin-2-ylsulfanyl)-acetic acid ethyl ester] |
| 1750 nM | COc1ccccc1-c1nnc(NC(C)=O)s1 [MLS000041972] |
| 1530 nM | CC1=CCC(COC(=O)Nc2ccccc2)CC1 (configuration not stated) [(4-methylcyclohex-3-en-1-yl)methyl N-phenylcarbamate] |
| 1350 nM | C=CCOc1ccc(C=CC(C)N=O)cc1 (configuration not stated) [(E)-4-(4-allyloxyphenyl)but-3-en-2-one oxime] |
| 1050 nM | COc1ccc(C(=O)Nc2cc(C)on2)cc1 [4-methoxy-N-(5-methyl-1,2-oxazol-3-yl)benzamide] |
| 1030 nM | O=C(NC1CCCC1)c1cc(-c2cccs2)on1 [MLS000087238] |
| 1020 nM | O=C(Nc1ccc(N2CCCCC2)cc1)c1cncc(Br)c1 [5-bromanyl-N-(4-piperidin-1-ylphenyl)pyridine-3-carboxamide] |
| 853 nM | COc1cccc(-c2noc(-c3cccnc3)n2)c1 [3-(3-methoxyphenyl)-5-(3-pyridinyl)-1,2,4-oxadiazole] |
| 823 nM | CCn1c(-c2ccc(N(C)C)cc2)nc2ccccc21 [4-(1-ethyl-2-benzimidazolyl)-N,N-dimethylaniline] |
| 628 nM | CC(=O)C(C)Oc1ccc2c3c(c(=O)oc2c1C)CCCC3 (configuration not stated) [3-(2-keto-1-methyl-propoxy)-4-methyl-7,8,9,10-tetrahydrobenzo[c]chromen-6-one] |
| 624 nM | CCOc1ccc(-c2nc(C#N)c(NC3CC3)o2)cc1 [5-(cyclopropylamino)-2-(4-ethoxyphenyl)-1,3-oxazole-4-carbonitrile] |
| 563 nM | Cc1cccn2cc(-c3ccccc3)nc12 [8-methyl-2-phenyl-imidazo[1,2-a]pyridine] |
| 536 nM | Cc1cc(NCCOCCO)n2ncc(-c3ccc(Cl)cc3)c2n1 [2-[2-[[3-(4-chlorophenyl)-5-methyl-7-pyrazolo[1,5-a]pyrimidinyl]amino]ethoxy]ethanol] |
| 491 nM | CCOc1ccc(C=CC(C)N=O)cc1 (configuration not stated) [(Z)-4-(4-ethoxyphenyl)-3-buten-2-one oxime] |
| 431 nM | Clc1ccc(-c2nnc(-c3ccccc3Cl)o2)cc1 [2-(2-chlorophenyl)-5-(4-chlorophenyl)-1,3,4-oxadiazole] |
| 317 nM | O=C(Nc1nnc(C23CC4CC(CC(C4)C2)C3)s1)c1ccco1 [N-[5-(1-adamantyl)-1,3,4-thiadiazol-2-yl]furan-2-carboxamide] |
| 282 nM | O=C(c1ccc(-c2nnc(-c3ccccc3)o2)cc1)N1CCCCCC1 [1-azepanyl-[4-(5-phenyl-1,3,4-oxadiazol-2-yl)phenyl]methanone] |
| 221 nM | Cn1cccc1C(=O)OCc1csc(-c2ccccc2)n1 [(2-phenyl-1,3-thiazol-4-yl)methyl 1-methylpyrrole-2-carboxylate] |

Same assay, conditions: inactive by the depositor's call

| EC50 | SMILES |
| --- | --- |
| 10800 nM | O=c1c2ccccc2nc2ccc(NCc3ccco3)nn12 [2-(2-furanylmethylamino)-10-pyridazino[6,1-b]quinazolinone] |
| 10100 nM | O=C(NCc1cccs1)c1noc2c1CCCC2 [MLS000087354] |
